# Laboratory results published in patent US11370847B2, “Single domain antibodies directed against intracellular antigens” (Singh Biotechnology, LLC, priority 2014, dated 2022).
# Values joined by “and” are separate entries in the source; they are usually repeats but may differ in a detail not shown here. Equal values may be shown once. Numbered stars: 1 amine (or outer) side, 2 acyl side, 3 side chain; on linkers, the order of the positions; unused ones are H or OH. Bridge positions count the residues as written; N and C are the ends. Square brackets hold non-standard residues; d marks the D form. Peptide text beside a SMILES is read from it. I, II: the chains in the order shown. Actinocin(9to1) = Cc1c2oc3c(C)ccc(C(=O)[*:1])c3nc-2c(C(=O)[*:2])c(N)c1=O; NMeV = CN[C@H](C(=O)O)C(C)C; Sar = CNCC(=O)O
# Columns and labels:
# [1] = molecular target: T1, TNF-α (Homo sapiens, UniProt P01375); assay: Inhibition of TNF-α cytotoxicity in L929 fibroblast cells (MTS); type: cell-based, mouse; conditions: Assay 2, Actinomycin D only (no TNFα), sample replicates
# T1 construct: purchased Sigma-Aldrich
# T1 sequence (P01375 77-233 limits assumed): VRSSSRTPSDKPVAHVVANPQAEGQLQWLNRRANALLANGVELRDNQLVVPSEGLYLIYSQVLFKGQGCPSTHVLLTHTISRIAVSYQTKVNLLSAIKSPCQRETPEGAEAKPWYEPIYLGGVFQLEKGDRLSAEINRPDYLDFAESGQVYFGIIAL
# [2] = system: SJSA-1 cells; assay: MTT proliferation assay, SJSA-1; type: cell-based, human
# [3] = system: SJSA-1 xenograft; assay: SJSA-1 Bone Osteosarcoma subcutaneous xenograft model
# [4] = system: SJSA-1 xenograft; conditions: mouse, in vivo
# [5] = SBT-100 5.0 mg/kg BID 14 days IP, Doxorubicin 7.0 mg/kg days 1, 8 and 14 IP
# [6] = study day 9 post implant, IP, SBT-100 5.0 mg/kg BIDx14 and/or Doxorubicin 7.0 mg/kg days 1, 8, 14
# [7] = study day 13 post implant, IP, SBT-100 5.0 mg/kg BIDx14 and/or Doxorubicin 7.0 mg/kg days 1, 8, 14
# [8] = study day 16 post implant, IP, SBT-100 5.0 mg/kg BIDx14 and/or Doxorubicin 7.0 mg/kg days 1, 8, 14
# [9] = study day 20 post implant, IP, SBT-100 5.0 mg/kg BIDx14 and/or Doxorubicin 7.0 mg/kg days 1, 8, 14
# [10] = study day 21 post implant, IP, SBT-100 5.0 mg/kg BIDx14 and/or Doxorubicin 7.0 mg/kg days 1, 8, 14
# [11] = study day 23 post implant, IP, SBT-100 5.0 mg/kg BIDx14 and/or Doxorubicin 7.0 mg/kg days 1, 8, 14
# [12] = study day 27 post implant, IP, SBT-100 5.0 mg/kg BIDx14 and/or Doxorubicin 7.0 mg/kg days 1, 8, 14
smiles,measurement,setting,value
"Cc1c2oc3c(C)ccc(C(=O)N[C@@H]4C(=O)N[C@H](C(C)C)C(=O)N5CCC[C@H]5C(=O)N(C)CC(=O)N(C)[C@@H](C(C)C)C(=O)O[C@@H]4C)c3nc-2c(C(=O)N[C@@H]2C(=O)N[C@H](C(C)C)C(=O)N3CCC[C@H]3C(=O)N(C)CC(=O)N(C)[C@@H](C(C)C)C(=O)O[C@@H]2C)c(N)c1=O [Actinomycin D] (I: T[dV]P[Sar][NMeV] / II: T[dV]P[Sar][NMeV]; ester I:1-I:C, II:1-II:C; linker I:N-II:N via Actinocin(9to1))",% Toxicity,[1],0%
"COc1cccc2c1C(=O)c1c(O)c3c(c(O)c1C2=O)C[C@@](O)(C(=O)CO)C[C@@H]3O[C@H]1C[C@H](N)[C@H](O)[C@H](C)O1 [Doxorubicin, reference compound]",inhibition of SJSA-1 cells,"[2]; 72 hours, SBT-100 at 50 and 100 μg/ml, Doxorubicin at all dose levels tested",significant dose-dependent inhibition
same,inhibition at 0.0313 µM,"[2]; Homo sapiens, SJSA-1, 72 h",28%
same,inhibition at 0.0625 µM,"[2]; Homo sapiens, SJSA-1, 72 h",29%
same,inhibition at 0.313 µM,"[2]; Homo sapiens, SJSA-1, 72 h",31%
same,inhibition at 0.5 µM,"[2]; Homo sapiens, SJSA-1, 72 h",36%
same,inhibition at 0.625 µM,"[2]; Homo sapiens, SJSA-1, 72 h",29%
same,inhibition at 1 µM,"[2]; Homo sapiens, SJSA-1, 72 h",49%
same,inhibition at 5 µM,"[2]; Homo sapiens, SJSA-1, 72 h",52%
same,inhibition at 10 µM,"[2]; Homo sapiens, SJSA-1, 72 h",45%
same,Mean Abs (±SD),"[2]; Table 72 (experiment 5a), Doxorubicin 0.0313 μM alone, 72 hours",0.281 ± 0.031
same,Mean Abs (±SD),"[2]; Table 72 (experiment 5a), Doxorubicin 0.0625 μM alone, 72 hours",0.277 ± 0.035
same,Mean Abs (±SD),"[2]; Table 72 (experiment 5a), Doxorubicin 0.5 μM alone, 72 hours",0.248 ± 0.038
same,Mean Abs (±SD),"[2]; Table 72 (experiment 5a), Doxorubicin 1 μM alone, 72 hours",0.197 ± 0.012
same,Mean Abs (±SD),"[2]; Table 73 (Experiment 2, 5b), Doxorubicin 0.313 μM alone, 72 hours",0.519 ± 0.004
same,Mean Abs (±SD),"[2]; Table 73 (Experiment 2, 5b), Doxorubicin 0.625 μM alone, 72 hours",0.530 ± 0.024
same,Mean Abs (±SD),"[2]; Table 73 (Experiment 2, 5b), Doxorubicin 5.00 μM alone, 72 hours",0.358 ± 0.003
same,Mean Abs (±SD),"[2]; Table 73 (Experiment 2, 5b), Doxorubicin 10.0 μM alone, 72 hours",0.414 ± 0.007
same,% T/C,[3]; [5],17.91%
same,mean tumor growth inhibition at the end of the study,[3]; [5],84.71%
same,mean tumor size (±S.E.) at termination,[3]; [5],215.84±52.32
same,mean tumor size (±SE) at the last day of dosing,[3]; [5],118.18±11.13
same,tumor doubling time,[3]; control 8.22,13.32
same,% Inh Mean,[3]; [6],58.36%
same,% Inh Med,[3]; [6],32.94%
same,Mean Abs (tumor measurement),[3]; [6],16.52 mm^3
same,"Tumor Measurements, single animals",[3]; [6],23.19 mm^3 and 14.32 mm^3 and 16.69 mm^3 and 0.00 mm^3 (2×) and 46.20 mm^3
same,% Inh Mean,[3]; [7],3.16%
same,% Inh Med,[3]; [7],−23.18%
same,% T/C,[3]; [7],107.14%
same,Mean Abs (tumor measurement),[3]; [7],76.72 mm^3
same,Median Abs (tumor measurement),[3]; [7],72.93 mm^3
same,"Tumor Measurements, single animals",[3]; [7],48.43 mm^3 and 20.77 mm^3 and 132.27 mm^3 and 104.16 mm^3 and 25.81 mm^3 and 132.66 mm^3 and 72.93 mm^3
same,% Inh Mean,[3]; [8],55.02%
same,% Inh Med,[3]; [8],55.11%
same,% T/C,[3]; [8],51.96%
same,Mean Abs (tumor measurement),[3]; [8],78.09 mm^3
same,Median Abs (tumor measurement),[3]; [8],73.50 mm^3
same,"Tumor Measurements, single animals",[3]; [8],102.31 mm^3 and 37.33 mm^3 and 105.65 mm^3 and 118.75 mm^3 and 57.55 mm^3 and 51.55 mm^3 and 73.50 mm^3
same,% Inh Mean,[3]; [9],74.31%
same,% Inh Med,[3]; [9],71.58%
same,% T/C,[3]; [9],30.35%
same,Mean Abs (tumor measurement),[3]; [9],79.33 mm^3
same,Median Abs (tumor measurement),[3]; [9],72.16 mm^3
same,"Tumor Measurements, single animals",[3]; [9],61.44 mm^3 and 68.71 mm^3 and 114.42 mm^3 and 93.72 mm^3 and 75.00 mm^3 and 69.85 mm^3 and 72.16 mm^3
same,% Inh Mean,[3]; [10],70.41%
same,% Inh Med,[3]; [10],61.77%
same,% T/C,[3]; [10],36.16%
same,Mean Abs (tumor measurement),[3]; [10],118.18 mm^3
same,"Tumor Measurements, single animals",[3]; [10],85.16 mm^3 and 115.50 mm^3 and 133.21 mm^3 and 119.94 mm^3 and 160.89 mm^3 and 94.40 mm^3
same,% Inh Mean,[3]; [11],72.79%
same,% Inh Med,[3]; [11],71.86%
same,% T/C,[3]; [11],30.43%
same,Mean Abs (tumor measurement),[3]; [11],141.94 mm^3
same,Median Abs (tumor measurement),[3]; [11],129.81 mm^3
same,"Tumor Measurements, single animals",[3]; [11],105.84 mm^3 and 142.33 mm^3 and 217.29 mm^3 and 151.94 mm^3 and 116.95 mm^3 and 117.30 mm^3
same,% Inh Mean,[3]; [12],84.71%
same,% Inh Med,[3]; [12],81.05%
same,% T/C,[3]; [12],17.91%
same,Mean Abs (tumor measurement),[3]; [12],215.84 mm^3
same,Median Abs (tumor measurement),[3]; [12],215.84 mm^3
same,"Tumor Measurements, single animals",[3]; [12],163.53 mm^3 and 268.16 mm^3
same,number surviving at the end of the study,"[4]; Hsd: Athymic Nude-Fox1nu, 14 days",2
same,Are the survival curves sig different?,[4],Yes
